In patent US6613356B1, “Weight loss medication and method” (priority 2000, dated 2003):
Like-named read-outs stand apart in the source and are kept apart here.

How the values were obtained:
[1] = system: mouse colons; details: cited from earlier work
[2] = About 9 week (67 day) test in adult mice with butyrate added to food; type: in vivo; details: 67 day test period
Description: Another test on adult mice was run for about 9 weeks. Butyrate was mixed with chocolate and/or cornstarch and the mixture was added to the mice's food (a commercial guinea pig food—Aytec Supreme Daily Blend Guinea Pig Diet). The butyrate dose started at 11.1 mg per mouse twice a day at the beginning of the study and ended up at 58 mg per mouse twice a day at the end of the study. The non-butyrate-fed mice had the same chocolate and/or cornstarch added to their food in equal weight compared to the butyrate-fed mice. The four butyrate mice gained an average of 50 mg each over the 67 day test period, and the four non-butyrate mice gained an average of 325 mg each over the 67 day test period. While no weight loss occurred in either group the butyrate mice gained less weight, by a ratio of about 6.5 to 1.

[3] = cited from earlier work
[4] = 10 week experiment in adolescent common white mice fed K butyrate in chocolate; type: in vivo
Description: Two mouse experiments involved 8 adolescent common white mice, still in the growth period. Four were assigned to the butyrate group and were fed K butyrate mixed in pieces of chocolate 300-400 mg size twice a day, and the other four mice were assigned to the non-butyrate group and were fed the same size pieces of plain chocolate. Both groups of mice were otherwise cared for in an identical fashion and fed twice as many food pellets as recommended. The dose of butyrate initially chosen was 3.47 mg per dose scaled down from the human dose according to the ratio of body surface area of mouse compared to man. This was estimated at 1:250.

[5] = Experimental administration of potassium butyrate capsules as a weight loss agent to two human volunteers; type: in vivo; design: triglyceride values / total cholesterol / HDL / LDL / triglycerides: unit not given here
Description: Based on the inherent safety of butyrate as discussed in medical literature, experimental administration of butyrate was begun on two volunteers. Tests on the two human volunteers has produced weight loss of 17 pounds and 40 pounds respectively at a dosage of 3-5 capsules, once or twice daily (volunteer #1); or 3-5 capsules three times per day (volunteer #2). Each capsule contained approximately 140 mg of potassium butyrate at the start of the test period, and 231 mg each at the end of the test period. The butyrate capsules typically contain 231 to 287 mg of potassium butyrate and 345 to 431 mg of corn starch and 345 to 431 mg of sodium bicarbonate in a 920 to 1 100 mg Size 0 Lilly gelatin capsule. The potassium butyrate is prepared by oxidizing 1-butanol with potassium permanganate in aqueous solution at between 180° F. and 212° F. This reaction produces manganese dioxide and butyric acid and KOH. The manganese dioxide is quite insoluble and is filtered out, and the butyric acid is then neutralized by the potassium hydroxide formed, thus forming the salt, potassium butyrate. The following reactions are thought to produce the potassium butyrate:
The inventor, after having been convinced by the medical literature of the inherent safety of butyrate in humans, began experimental administration of potassium butyrate as a weight loss agent to two volunteers, one of which was […]. The starting dose was 23 mg twice a day, in capsules containing 230 mg of a 10% mixture each. Volunteer #1's starting weight then was 185 lb measured in the morning, fasting. Volunteer #1's height was […] making their body mass index (BMI) […]. Note this is in the range regarded as being overweight (25-30). The dose was increased to 66 mg twice a day a couple of days later, and after 20 days the weight declined to 181 lb. The dose was increased to 130 mg twice a day before meals after about a month. Weight after 2 months was 174 lb. During the 4th through 7th month, the dose averaged 280 mg twice a day on about half the days, skipping it on alternate days. Weight reached its lowest point after about 7 months: 168 lb, BMI 24.5, which is the upper range of normal. After that, the dose has been an average of […] once a day, taken before meals, but only used on alternate days. The weight on this low dose rose to 174 lb and has stayed within 4 lb of that for the last 5 months.
Another test subject, volunteer #2, started on potassium butyrate when weight was 256 lb, height 5′3″, BMI 40. Prior to this use of butyrate, subject's most successful weight losses was 50 lb over a 3 month period while on Optifast program, a 400 calorie a day supplemented fasting program.
The starting dose of butyrate was 40 mg three times a day. It was rapidly escalated to 560 mg before each meal and continued on that dose for about 6 months, when the dose was increased to 800 mg three times a day. Weight after 6 months was 222 lbs. The same dose was continued from that point for another 6 months. Then their weight was 220. Dose was then increased to 1150 mg three times a day for another 8 days. Then their weight was 216 after about a year, for a total of 40 lbs of weight loss during this slightly more than one year duration clinical trial. BMI declined to 35.

CCCC(=O)O [alkaline butyrate ion, reference compound]
colitis ([1]; mouse, in vivo): did not cause colitis

CCCC(=O)O [butyric acid]
colitis ([1]; 1% concentration instilled into mouse colons): caused colitis

CCCC(=O)[O-].[K+] [potassium butyrate]
average weight gain per mouse ([2]; 11.1 to 58 mg per mouse twice a day, non-butyrate mice 325 mg): 50 mg
ratio of weight gain, non-butyrate to butyrate mice ([2]; ratio to 1): about 6.5
half-life in the serum [3]: 2 min
tolerability ([4]; adolescent mice, 3.47 mg per dose twice a day): well tolerated
weight gain less than non-butyrate mice ([4]; adolescent mice, 10 week experiment): about 10%
average weight gain per mouse ([4]; adolescent mice, 10 week experiment, 3.47 then 11.5 mg twice a day, non-butyrate mice 18.6 grams): 17 grams
difference in behavior, activity or agility vs non-butyrate group ([4]; mice): no difference
adverse effects ([5]; volunteer #1): No adverse effects occurred except for occasional transient epigastric aching soon after a dose
cholesterol and cholesterol ratios ([5]; volunteer #1): not changed significantly
halitosis or foul eructation ([5]; volunteer #1): No halitosis or foul eructation occurred
liver enzymes and liver function tests ([5]; volunteer #1): remained normal
weight loss ([5]; volunteer #1, 3-5 capsules once or twice daily): 17 pounds
weight ([5]; volunteer #1, after 2 months, 130 mg twice a day before meals, starting weight 185 lb): 174 lb
weight ([5]; volunteer #1, after 20 days, 23 then 66 mg twice a day, starting weight 185 lb): 181 lb
triglyceride values ([5]; volunteer #1, after about 6 months, initially 310): 230
weight, lowest point ([5]; volunteer #1, after about 7 months, 280 mg twice a day on about half the days, starting weight 185 lb): 168 lb
body mass index (BMI) ([5]; volunteer #1, after about 7 months, starting BMI 27): 24.5
carpal tunnel syndrome symptoms ([5]; volunteer #1, after about 14 months): improved markedly
blood pressure ([5]; volunteer #1, after about 14 months, hypertension before required 4 mg per day Cardura): normal without medication
blood counts and survey chemistries (SMA-18 or comprehensive chemistry) ([5]; volunteer #1, checked periodically): normal
weight ([5]; volunteer #1, low dose, average 660 mg once a day on alternate days, stayed within 4 lb for the last 5 months): 174 lb
HDL cholesterol ([5]; volunteer #1, over 4 months, from 48): 47
total cholesterol ([5]; volunteer #1, over 4 months, from 235): 236
fatigue ([5]; volunteer #2): lessened
feeling of general well being ([5]; volunteer #2): improved
weight loss ([5]; volunteer #2, 3-5 capsules three times per day): 40 pounds
exercise tolerance on treadmill exercise stress tests ([5]; volunteer #2, after 1 year's use vs previous test): almost doubled
time able to walk on treadmill in stress test ([5]; volunteer #2, after 1 year's use, previous test 4 minutes): 7 min
weight ([5]; volunteer #2, after 6 months, 560 mg before each meal, starting weight 256 lb): 222 lbs
weight ([5]; volunteer #2, after about a year, 1150 mg three times a day for another 8 days, starting weight 256 lb): 216 lbs
BMI ([5]; volunteer #2, after about a year, starting BMI 40): 35
weight ([5]; volunteer #2, after another 6 months at 800 mg three times a day, starting weight 256 lb): 220 lbs
total cholesterol ([5]; volunteer #2, dropped from 266): 238
abnormalities on periodic comprehensive chemistry blood tests and blood counts ([5]; volunteer #2, during butyrate use): no abnormalities have appeared
HDL ([5]; volunteer #2, from 56): 52
LDL ([5]; volunteer #2, from 160): 150
triglycerides ([5]; volunteer #2, from 269): 179
total weight loss ([5]; volunteer #2, slightly more than one year): 40 lbs
